Laboratory results published in patent publication US9995734B2, “Human T cell line assay for evaluating the immunologic identity of glatiramer acetate preparations” (Mylan Inc., priority 2013, dated 2018).
Values joined by “and” are separate entries in the source; they are usually repeats but may differ in a detail not shown here. Identical values can stand only once.

Assays:
Type in all cases: cell-based, human
Donor 3 GMA T-Cell Lines = test: ATP proliferation assay (CellTiter Glo), Donor 3 GMA T-cell lines, incl. reactivity to non-canonical GA peptides; settings: Day 50 of culturing
Donor 3 COP T-Cell Lines = test: ATP proliferation assay (CellTiter Glo), Donor 3 COP T-cell lines, incl. reactivity to non-canonical GA peptides; settings: for Non-Canonical Peptide Non-Reactivity: proliferation <2 times no antigen control
Donor 1 COP T-Cell Lines = test: Multiplex bead cytokine assay (FlowCytoMix), Donor 1 COP T-cell lines; settings: 222-2D8, 222-1H12, 222-2F12; Day 56; 48 hours; 1, 3, 10 μg/mL
Description: Culture medium was removed from cultures prepared as for proliferation assay and utilized to measure cytokine production. In most cases culture medium was collected 18-24 hours after mixing T-cells, APC, and stimulating antigen. Cytokine production was measured by ELISA or bead assay. For measuring cytokine production, 100-150 μL culture medium (100 μL if culture was to be continued, otherwise 150 μL) was removed from each well. In some cases, the culture was continued 48 hours, for a total of 72 hours of culture, and the proliferative response measured.
The concentration of multiple cytokines was measured simultaneously using FlowCytoMix™ kits (eBioscience, San Diego Calif.). These are fluorescent bead based assays consisting of beads conjugated to anti cytokine antibodies. Beads specific for each cytokine are distinguished by size and fluorescence at 670 run. Cytokine bound to each bead is detected using a phycoerythrin conjugated antibody so that the fluorescence at 585 nm reflects the concentration of cytokine in the sample. Two kits were utilized which measured different cytokine panels. The TH1/TH2 kit measures IFN-γ, IL-1β, IL-2, IL-4, IL-5, IL-6, IL-8, IL-10, IL-12p70, TNF-α (TNF) and TNF-β (LT). The TH1/TH2/TH9/TH17/TH22 kit measures […], IL-1β, IL-2, IL-4, IL-5, IL-6, IL-9, IL-10, IL-12p70, IL-13, IL-17, IL-22, and TNF-α (TNF). Both kits were used following the manufacturer's instructions.
IL-12p70, IFN-γ, IL-2, IL-10, IL-8, IL-6, IL-5, IL-4, IL-1β, TNF-α (TNF), and TNF-β (LT) secretion were measured in response to stimulation with 1, 3, or 10 μg/mL GMA, or 1, 3, or 10 μg/mL COP, as well as a no-antigen control and an MBP control, in the presence of autologous EBV-transformed B-LCL.

Donor 4 COP T-Cell Lines = test: ATP proliferation assay (CellTiter Glo), Donor 4 COP T-cell lines, incl. reactivity to non-canonical GA peptides; settings: for Non-Canonical Peptide Non-Reactivity: proliferation <2 times no antigen control; for Proliferation (luminescent ATP assay), Mean: T-cell line 205-1F4, Day 71, autologous B-LCL; for Reactivity (proliferation), Mean: T-cell line 205-1H3, 0 μg/mL 4121.0

## EKPKVEAYKAAAAPA [STERN]
Donor 3 GMA T-Cell Lines; T-cell line 165-05G, 1 μg/mL antigen, No Antigen Value 2149
  Proliferation (luminescent ATP assay), Mean: 1750 RLU
Donor 3 GMA T-Cell Lines; T-cell line 165-05G, 3 μg/mL antigen, No Antigen Value 2149
  Proliferation (luminescent ATP assay), Mean: 1606 RLU
Donor 3 GMA T-Cell Lines; T-cell line 165-05G, 10 μg/mL antigen, No Antigen Value 2149
  Proliferation (luminescent ATP assay), Mean: 1650 RLU
Donor 3 GMA T-Cell Lines; T-cell line 165-05G, 30 μg/mL antigen, No Antigen Value 2149
  Proliferation (luminescent ATP assay), Mean: 1572 RLU
Donor 3 GMA T-Cell Lines; T-cell line 165-E9G, 1 μg/mL antigen, No Antigen Value 1742
  Proliferation (luminescent ATP assay), Mean: 1673 RLU
Donor 3 GMA T-Cell Lines; T-cell line 165-E9G, 3 μg/mL antigen, No Antigen Value 1742
  Proliferation (luminescent ATP assay), Mean: 1480 RLU
Donor 3 GMA T-Cell Lines; T-cell line 165-E9G, 30 μg/mL antigen, No Antigen Value 1742
  Proliferation (luminescent ATP assay), Mean: 1487 RLU
Donor 3 GMA T-Cell Lines; T-cell line 165-E9G, 10 μpg/mL antigen, No Antigen Value 1742
  Proliferation (luminescent ATP assay), Mean: 1471 RLU
Donor 3 GMA T-Cell Lines; T-cell line 165-F10G, 1 μg/mL antigen, No Antigen Value 3752
  Proliferation (luminescent ATP assay), Mean: 2465 RLU
Donor 3 GMA T-Cell Lines; T-cell line 165-F10G, 3 μg/mL antigen, No Antigen Value 3752
  Proliferation (luminescent ATP assay), Mean: 2389 RLU
Donor 3 GMA T-Cell Lines; T-cell line 165-F10G, 10 μg/mL antigen, No Antigen Value 3752
  Proliferation (luminescent ATP assay), Mean: 2030 RLU
Donor 3 GMA T-Cell Lines; T-cell line 165-F10G, 30 μg/mL antigen, No Antigen Value 3752
  Proliferation (luminescent ATP assay), Mean: 2583 RLU
Donor 3 GMA T-Cell Lines; T-cell line 165-H11G, 1 μg/mL antigen, No Antigen Value 1485
  Proliferation (luminescent ATP assay), Mean: 2279 RLU
Donor 3 GMA T-Cell Lines; T-cell line 165-H11G, 3 μg/mL antigen, No Antigen Value 1485
  Proliferation (luminescent ATP assay), Mean: 2118 RLU
Donor 3 GMA T-Cell Lines; T-cell line 165-H11G, 10 μg/mL antigen, No Antigen Value 1485
  Proliferation (luminescent ATP assay), Mean: 2418 RLU
Donor 3 GMA T-Cell Lines; T-cell line 165-H11G, 30 μg/mL antigen, No Antigen Value 1485
  Proliferation (luminescent ATP assay), Mean: 2296 RLU
Donor 3 COP T-Cell Lines; 165-E3C, separate experiment
  proliferation response to non-canonical peptides: did not react

## L-glutamic acid polymer with L-alanine, L-lysine and L-tyrosine, acetate (salt) [GA]
Donor 1 COP T-Cell Lines
  cytokine secretion, dose comparison: highest levels of cytokines

## poly (Glu-Ala; 6:4) [GA 64]
Donor 4 COP T-Cell Lines; 205-1F4
  Non-Canonical Peptide Non-Reactivity: GA 64
Donor 4 COP T-Cell Lines; 205-1H3
  Non-Canonical Peptide Non-Reactivity: GA 64
Donor 4 COP T-Cell Lines; Donor 4 COP lines, stimulation with the non-canonical GA peptide
  Nonreactive T-Cell Line: 205-1F4 (Donor 4) and 205-1H3 (Donor 4)
Donor 4 COP T-Cell Lines; 1 μg/mL antigen
  Proliferation (luminescent ATP assay), Mean: 2544
  Reactivity (proliferation), Mean: 4012.0
Donor 4 COP T-Cell Lines; 3 μg/mL antigen
  Proliferation (luminescent ATP assay), Mean: 2261
  Reactivity (proliferation), Mean: 4246.0
Donor 4 COP T-Cell Lines; 10 μg/mL antigen
  Proliferation (luminescent ATP assay), Mean: 2080
  Reactivity (proliferation), Mean: 2054.3
Donor 3 COP T-Cell Lines; 165-C4C
  Non-Canonical Peptide Non-Reactivity: GA64
Donor 3 COP T-Cell Lines; 165-F3C
  Non-Canonical Peptide Non-Reactivity: GA 64
Donor 3 COP T-Cell Lines; 165-F6C
  Non-Canonical Peptide Non-Reactivity: GA64
Donor 3 COP T-Cell Lines; Donor 3 COP lines, stimulation with the non-canonical GA peptide
  Nonreactive T-Cell Line: 165-C4C (Donor 3) and 165-F3C (Donor 3) and 165-F6C (Donor 3)
Donor 3 COP T-Cell Lines; T-cell line 165-C4C, 1 μg/mL antigen, Day 66 of culture, 0 μg/mL 1881
  Proliferation (luminescent ATP assay), Mean: 2205
Donor 3 COP T-Cell Lines; T-cell line 165-C4C, 3 μg/mL antigen, Day 66 of culture, 0 μg/mL 1881
  Proliferation (luminescent ATP assay), Mean: 2229
Donor 3 COP T-Cell Lines; T-cell line 165-C4C, 10 μg/mL antigen, Day 66 of culture, 0 μg/mL 1881
  Proliferation (luminescent ATP assay), Mean: 2244
Donor 3 COP T-Cell Lines; T-cell line 165-F3C, 1 μg/mL antigen, Day 77 of culture, 0 μg/mL 1563
  Proliferation (luminescent ATP assay), Mean: 1791
Donor 3 COP T-Cell Lines; T-cell line 165-F3C, 3 μg/mL antigen, Day 77 of culture, 0 μg/mL 1563
  Proliferation (luminescent ATP assay), Mean: 1943
Donor 3 COP T-Cell Lines; T-cell line 165-F3C, 10 μg/mL antigen, Day 77 of culture, 0 μg/mL 1563
  Proliferation (luminescent ATP assay), Mean: 1870
